What was measured:
Assay type in all cases: in vivo
[1] = tested on: Abca4+/+ (Rpe65 450Leu, pigmented, 129/SV×C57BL/6J) mice; experiment: ERG rod b-wave amplitude recovery after photo-bleaching; conditions: 50 mg/kg i.p., 3 days after treatment
Description: Electroretinogram Determinations (ERG): Mice were dark-adapted overnight before all ERG experiments. To determine the acute effect of compounds under study, mice were given a single i.p. injection of […] Control (“untreated”) animals were injected with 25 uL of DMSO. Mice were anaesthetized with ketamine (80 mg/kg) and xylazine (5-10 mg/kg) and pupils were dilated with 1% phenylephrine and 1% cyclopentolate, followed by an exposure to 5000 lux bleaching light for 2 min.
The ERG was recorded from the cornea with a cotton wick saline electrodes for about 50 min immediately after bleaching. Subcutaneous 30 gauge needles on the forehead and trunk were used as reference and ground electrodes, respectively. The animals rested on a heater maintaining the body temperature at 37° C. The light stimulus was obtained from a ganzfeld stimulator having a stroboscope (PS33 Grass Instruments Inc., West Warwick, R.I.) removed from its housing and recessed above and behind the head of the mouse. The flash was diffused to cover the ganzfeld homogeneously. Maximum flash intensity was measured with a calibrated light meter (J16 Tektronics Instruments, Beaverton, Oreg.). Responses were averaged by a Macintosh computer-controlled data acquisition system (PowerLab, AD Instruments, Mountain View, Calif.) at a frequency of 0.1 Hz. […]
The same animals were subjected to ERG experiments according to exactly the same protocol 3 days later, except no (repeated) injection of compounds was performed.
Acute effects: In order to determine whether TDT and TDH have an effect on the visual cycle in vivo, the overnight dark-adapted Abca4^+/+ (Rpe65 450Leu, pigmented, 129/SV×C57BL/6J) mice received single (i.p.) injections of the two compounds at 50 mg/kg. […]
Results are averaged from three mice in each group with SD bars shown. Both isoprenoids delayed the recovery of dark-adapted visual responses to an extent similar to that of 13-RA as judged from dark-adapted ERG b-wave amplitudes recorded using dim light flashes delivered immediately before and at regular intervals after photo-bleaching.

[2] = tested on: Balb/c mice; experiment: 11-cis-retinal regeneration after bleaching in mice
Description: Animal Studies: Protocols were approved by the Standing Committee on Animal Care of Harvard Medical School, the Institutional Animal Care and Use Committee of Columbia University and complied with guidelines set forth by The Association for Research in Vision and Ophthalmology. 7 week old male Balb/c albino mice and 7 week old male Sprague-Dawley rats were from Charles River Breeding Laboratories and were housed in 12:12 h light:dark cycle. 8-10 week old Abcr null mutant mice (129/SV×C57BL/6J) were generated as formerly described (12,20) and Abcr^−/− and Abcr^+/+ mice were raised under 12-hour on-off cyclic lighting with an in-cage illuminance of 30-50 lux. In Abcr^−/− and Abcr^+/+ mice, Rpe65 was 9 sequenced as reported previously.
Similar experiments with inhibitors were also performed in Balb/c mice. Here again inhibition is observed, but the effects are less pronounced than in rats, both with 13-RA and the isoprenoid antagonists. The inhibition values are as follows: 13-RA (33±4%), TDT (35±2%), and TDH (24±6%). It is noteworthy that in rats the 11-cis chromophore is regenerated considerably more slowly than in mice.

[3] = tested on: Sprague Dawley rats; experiment: 11-cis-retinal regeneration after bleaching in rats; conditions: for average inhibition of 11-cis-retinal regeneration: 50 mg/kg i.p. single injection, rats
Description: To establish whether recovery of the dark-adapted rod b-wave was retarded because of an effect on 11-cis-retinal synthesis we studied the effects of TDT on 11-cis-retinal regeneration in rats and mice. The 11-cis-retinal that is regenerated is essentially all bound to rhodopsin in rodents, so that measuring its level is equivalent to measuring the rhodopsin content. Initial experiments were performed on Sprague Dawley rats because similar experiments using 13-RA were previously carried out using these animals so that ready comparisons of potency and effectiveness can be made. […] Accordingly, in the current experiments, the rats were given single injections (i.p.) of TDT (TDH) (50 mg/kg in DMSO), 13-RA (50 mg/kg in DMSO), and DMSO alone. After injecting the analogs, the rats were dark adapted for 2 h, and then exposed to light that led to <10% of dark adapted 11-cis-retinal in these animals, compared to dark adapted controls (data not shown). After allowing the bleached rats to dark-adapt again for 30 min, the animals were sacrificed, and the regenerated 11-cis-retinal was determined as indicated in Methods. In these experiments, the amount of resynthesized 11-cis-retinal, the chromophore of rhodopsin, is measured by HPLC and compared to the amounts of all-trans-retinyl ester precursor.
These figures show results of HPLC analysis of extracted retinoids from drug treated rats. […] In FIG. 28A, the relative amounts of 11-cis-retinal-syn-oxime and all-trans-(cis)-retinyl esters are shown for the control (−13-RA) (top) and drug treated animals (bottom). In FIG. 28B, the corresponding data are shown for the TDT treated rats (top-control, bottom TDT treated). In this case, the ester pool in the drug treated rat is largely, if not exclusively, all-trans. […] Upon repetition of the experiments two further times the average inhibition values are as follows: 13-RA (78±2%), TDT (79±4%), and TDH (55±2%). These percent inhibition values are generated by comparing the integrated areas under the retinyl ester and 11-cis-retinal-syn-oxime peaks. (Materials and Methods).

Row | effect on rod b-wave recovery [1] | SMILES | inhibition of 11-cis-retinal regeneration [2] [%] | average inhibition of 11-cis-retinal regeneration [3] [%] | inhibitory effect on 11-cis-retinal regeneration ([3]; 50 mg/kg i.p., FIG. 28C)
1 | substantial effect | CCCCCCCCCCC(=O)/C=C(\C)CC/C=C(\C)CCC=C(C)C [TDT, 13,17,21-Trimethyl-docosa-12,16,20-trien-11-one] | 35±2 | 79±4 | 
2 | substantial effect | CCCCCCCCCCCCCCCCNC(=O)/C=C(\C)CC/C=C(\C)CCC=C(C)C [TDH, 3,7,11-Trimethyl-dodeca-2,6,10-trienoic acid hexadecylamide] | 24±6 | 55±2 | less pronounced than with TDT

Row | SMILES | effect on rod b-wave recovery [1] | inhibition of 11-cis-retinal regeneration [2] [%] | average inhibition of 11-cis-retinal regeneration [3] [%] | inhibitory effect on 11-cis-retinal regeneration ([3]; 50 mg/kg i.p., FIG. 28C)
3 | CC1=C(/C=C/C(C)=C/C=C/C(C)=C\C(=O)O)C(C)(C)CCC1 [13-cis-retinoic acid, reference compound] | no sustained effect | 33±4 | 78±2 | 
